Tests used:
Type in all cases: in vivo
[1] = system: velvetleaf (Abutilon theophrasti); experiment: Test B pre-/postemergence plant response; conditions: for Velvetleaf plant response rating (0 to 100 scale): 0 is no effect
Summary of the method: (§1)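 Visual ratings on a 0–100 scale (100 = complete control) were made versus untreated controls 13–15 days after treatment in a greenhouse. Compounds in surfactant-containing non-phytotoxic solvent were applied preemergence to seeds in loam–sand blend or postemergence to 1- to 4-leaf plants (2–18 cm).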

[2] = system: soybean (Glycine max); experiment: Test B pre-/postemergence plant response; conditions: for Soybean plant response rating (0 to 100 scale): 62 g ai/ha, 0 is no effect
Summary of the method: as §1

[3] = system: lambsquarters (Chenopodium album); experiment: Test B pre-/postemergence plant response; conditions: for Lambsquarters plant response rating (0 to 100 scale): 0 is no effect
Summary of the method: as §1

[4] = system: pigweed (Amaranthus retroflexus); experiment: Test B pre-/postemergence plant response; conditions: for Pigweed plant response rating (0 to 100 scale): 0 is no effect
Summary of the method: as §1

[5] = system: goosegrass (Eleusine indica); experiment: Test B pre-/postemergence plant response; conditions: for Goosegrass plant response rating (0 to 100 scale): 0 is no effect
Summary of the method: as §1

[6] = system: giant foxtail (Setaria faberii); experiment: Test B pre-/postemergence plant response; conditions: for Foxtail, Giant plant response rating (0 to 100 scale): 0 is no effect
Summary of the method: as §1

[7] = system: yellow nutsedge (Cyperus esculentus); experiment: Test B pre-/postemergence plant response; conditions: for Nutsedge, Yellow plant response rating (0 to 100 scale): 0 is no effect
Summary of the method: as §1

[8] = system: green foxtail (Setaria viridis); experiment: Test B pre-/postemergence plant response; conditions: for Foxtail, Green plant response rating (0 to 100 scale): 0 is no effect
Summary of the method: as §1

[9] = system: johnsongrass (Sorghum halepense); experiment: Test B pre-/postemergence plant response; conditions: for Johnsongrass plant response rating (0 to 100 scale): 0 is no effect
Summary of the method: as §1

[10] = system: corn (Zea mays); experiment: Test B pre-/postemergence plant response; conditions: for Corn plant response rating (0 to 100 scale): 0 is no effect
Summary of the method: as §1

[11] = system: chickweed (Stellaria media); experiment: Test B postemergence plant response; conditions: for Chickweed plant response rating (0 to 100 scale): 62 g ai/ha, 0 is no effect
Summary of the method: (§2)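 Plants at the 1- to 4-leaf stage (2 to 18 cm tall), grown in pots of peat moss/vermiculite medium with wetting agent and starter nutrients, received postemergence applications of test chemicals. After 13 to 15 days in a greenhouse, injury was rated visually against untreated controls on a 0 (no effect) to 100 (complete control) scale.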

[12] = system: canarygrass (Phalaris minor); experiment: Test B postemergence plant response; conditions: for Canarygrass plant response rating (0 to 100 scale): 62 g ai/ha, 0 is no effect
Summary of the method: as §2

[13] = system: winter barley (Hordeum vulgare); experiment: Test B postemergence plant response; conditions: for Barley plant response rating (0 to 100 scale): 62 g ai/ha, 0 is no effect
Summary of the method: as §2

[14] = system: windgrass (Apera spica-venti); experiment: Test B postemergence plant response; conditions: for Windgrass plant response rating (0 to 100 scale): 62 g ai/ha, 0 is no effect
Summary of the method: as §2

[15] = 62 g ai/ha, postemergence, 100 is complete control, 13 to 15 days
[16] = Postemergence, 31 g ai/ha, 0 to 100 scale (0 no effect, 100 complete control)
[17] = Postemergence, 125 g ai/ha, scale 0 to 100 (0 no effect, 100 complete control)
[18] = Postemergence, 250 g ai/ha, scale 0 to 100 (0 no effect, 100 complete control), 13 to 15 days
[19] = postemergence, 100 is complete control, 13 to 15 days
[20] = 31 g ai/ha, postemergence, scale 0 to 100, 0 is no effect, 100 is complete control
[21] = Postemergence, 125 g ai/ha, visual rating after 13 to 15 days, scale 0 (no effect) to 100 (complete control)
[22] = Postemergence, 250 g ai/ha, scale 0 to 100 (0 no effect, 100 complete control)
[23] = Preemergence, 31 g ai/ha, scale 0 to 100 (0 no effect, 100 complete control)
[24] = Preemergence, 62 g ai/ha, scale 0 to 100 (0 no effect, 100 complete control)
[25] = Preemergence, 125 g ai/ha, scale 0 to 100, 0 no effect, 100 complete control
[26] = Preemergence, 250 g ai/ha, 0 to 100 scale

COCCCn1c(-c2cccc(Br)c2)ncc(C(=O)C2=C(O)CCCC2=O)c1=O [Compound 140]
50: Plant response rating, Velvetleaf [1, 16]
15: Johnsongrass plant response rating (0 to 100 scale) [9, 15]
5: Corn plant response rating (0 to 100 scale) [10, 15] | Plant response rating, Canarygrass [12, 17] | Plant response rating, Canarygrass [12, 18] | Windgrass plant response rating (0 to 100 scale) [14, 19] | Plant response rating, Windgrass [14, 17]
70: Pigweed plant response rating (0 to 100 scale) [4, 15] | Plant response rating, Goosegrass [5, 17]
65: Velvetleaf plant response rating (0 to 100 scale) [1, 15] | Goosegrass plant response rating (0 to 100 scale) [5, 15] | Plant response rating, Foxtail, Giant [6, 16] | Plant response rating, Nutsedge, Yellow [7, 17]
0: Plant response rating, Corn [10, 16] | Plant response rating, Chickweed [11, 16] | Canarygrass plant response rating (0 to 100 scale) [12, 19] | Plant response rating, Canarygrass [12, 16] | Barley plant response rating (0 to 100 scale) [13, 19] | Plant response rating, Barley [13, 16] | Plant response rating, Barley [13, 17] | Plant response rating, Barley [13, 18] | Plant response rating, Windgrass [14, 16]
10: Plant response rating, Soybean [2, 16] | Plant response rating, Nutsedge, Yellow [7, 16] | Plant response rating, Johnsongrass [9, 16] | Chickweed plant response rating (0 to 100 scale) [11, 19]
35: Plant response rating, Johnsongrass [9, 17]
90: Plant response rating, Foxtail, Giant [6, 18]
85: Plant response rating, Velvetleaf [1, 18] | Plant response rating, Goosegrass [5, 18] | Plant response rating, Foxtail, Green [8, 17]
80: Plant response rating, Velvetleaf [1, 17] | Plant response rating, Soybean [2, 18] | Plant response rating, Lambsquarters [3, 18] | Plant response rating, Foxtail, Giant [6, 17]
75: Plant response rating, Soybean [2, 17] | Plant response rating, Lambsquarters [3, 17] | Plant response rating, Pigweed [4, 17] | Foxtail, Giant plant response rating (0 to 100 scale) [6, 15] | Plant response rating, Nutsedge, Yellow [7, 18] | Plant response rating, Chickweed [11, 18]
60: Soybean plant response rating (0 to 100 scale) [2, 19] | Lambsquarters plant response rating (0 to 100 scale) [3, 15] | Foxtail, Green plant response rating (0 to 100 scale) [8, 15]
95: Plant response rating, Foxtail, Green [8, 18]
98: Plant response rating, Pigweed [4, 18]
55: Plant response rating, Pigweed [4, 16]
45: Plant response rating, Lambsquarters [3, 16] | Plant response rating, Goosegrass [5, 16] | Nutsedge, Yellow plant response rating (0 to 100 scale) [7, 15] | Plant response rating, Foxtail, Green [8, 16] | Plant response rating, Johnsongrass [9, 18] | Plant response rating, Corn [10, 18] | Plant response rating, Chickweed [11, 17]
30: Plant response rating, Windgrass [14, 18]
25: Plant response rating, Corn [10, 17]

CCCn1c(-c2cccs2)ncc(C(=O)C2=C(O)CCCC2=O)c1=O [Compound 77]
20: Plant response rating, Windgrass [14, 21]
5: Plant response rating, Foxtail, Giant [6, 25] | Corn plant response rating (0 to 100 scale) [10, 15]
0: Plant response rating, Foxtail, Giant [6, 23] | Plant response rating, Foxtail, Giant [6, 24] | Plant response rating, Foxtail, Green [8, 23] | Plant response rating, Foxtail, Green [8, 24] | Plant response rating, Foxtail, Green [8, 25] | Plant response rating, Johnsongrass [9, 20] | Johnsongrass plant response rating (0 to 100 scale) [9, 15] | Plant response rating, Johnsongrass [9, 23] | Plant response rating, Johnsongrass [9, 24] | Plant response rating, Johnsongrass [9, 25] | Johnsongrass plant response rating [9, 26] | Plant response rating, Corn [10, 20] | Plant response rating, Corn [10, 23] | Plant response rating, Corn [10, 24] | Plant response rating, Corn [10, 25] | Corn plant response rating [10, 26] | Plant response rating, Canarygrass [12, 20] | Canarygrass plant response rating (0 to 100 scale) [12, 19] | Plant response rating, Canarygrass [12, 21] | Plant response rating, Canarygrass [12, 22] | Plant response rating, Barley [13, 20] | Barley plant response rating (0 to 100 scale) [13, 19] | Plant response rating, Barley [13, 21] | Plant response rating, Barley [13, 22]
70: Plant response rating, Soybean [2, 21] | Plant response rating, Soybean [2, 22] | Plant response rating, Nutsedge, Yellow [7, 21]
98: Velvetleaf plant response rating (0 to 100 scale) [1, 15] | Plant response rating, Velvetleaf [1, 21] | Lambsquarters plant response rating (0 to 100 scale) [3, 15] | Plant response rating, Lambsquarters [3, 21] | Plant response rating, Lambsquarters [3, 22] | Plant response rating, Lambsquarters [3, 23] | Plant response rating, Lambsquarters [3, 24] | Plant response rating, Pigweed [4, 20] | Pigweed plant response rating (0 to 100 scale) [4, 15] | Plant response rating, Goosegrass [5, 25] | Goosegrass plant response rating [5, 26] | Plant response rating, Chickweed [11, 22]
90: Plant response rating, Velvetleaf [1, 20] | Plant response rating, Nutsedge, Yellow [7, 25] | Nutsedge, Yellow plant response rating [7, 26]
45: Foxtail, Giant plant response rating [6, 26] | Plant response rating, Nutsedge, Yellow [7, 20]
15: Foxtail, Green plant response rating [8, 26]
80: Plant response rating, Foxtail, Giant [6, 22] | Plant response rating, Nutsedge, Yellow [7, 22] | Plant response rating, Nutsedge, Yellow [7, 24] | Foxtail, Green plant response rating (0 to 100 scale) [8, 15] | Plant response rating, Foxtail, Green [8, 21] | Plant response rating, Foxtail, Green [8, 22] | Plant response rating, Chickweed [11, 20]
55: Plant response rating, Goosegrass [5, 23]
85: Plant response rating, Goosegrass [5, 22] | Chickweed plant response rating (0 to 100 scale) [11, 19]
50: Soybean plant response rating (0 to 100 scale) [2, 19]
10: Plant response rating, Johnsongrass [9, 21] | Plant response rating, Johnsongrass [9, 22] | Plant response rating, Windgrass [14, 20] | Windgrass plant response rating (0 to 100 scale) [14, 19]
100: Plant response rating, Velvetleaf [1, 22] | Plant response rating, Velvetleaf [1, 24] | Plant response rating, Velvetleaf [1, 25] | Velvetleaf plant response rating [1, 26] | Plant response rating, Lambsquarters [3, 25] | Lambsquarters plant response rating [3, 26] | Plant response rating, Pigweed [4, 21] | Plant response rating, Pigweed [4, 22] | Plant response rating, Pigweed [4, 23] | Plant response rating, Pigweed [4, 24] | Plant response rating, Pigweed [4, 25] | Pigweed plant response rating [4, 26]
95: Plant response rating, Velvetleaf [1, 23] | Plant response rating, Lambsquarters [3, 20] | Plant response rating, Goosegrass [5, 24] | Plant response rating, Chickweed [11, 21]
65: Plant response rating, Goosegrass [5, 20] | Plant response rating, Foxtail, Giant [6, 20]
60: Nutsedge, Yellow plant response rating (0 to 100 scale) [7, 15] | Plant response rating, Corn [10, 21]
40: Plant response rating, Foxtail, Green [8, 20]
25: Plant response rating, Soybean [2, 20] | Plant response rating, Windgrass [14, 22]
75: Goosegrass plant response rating (0 to 100 scale) [5, 15] | Plant response rating, Goosegrass [5, 21] | Foxtail, Giant plant response rating (0 to 100 scale) [6, 15] | Plant response rating, Foxtail, Giant [6, 21] | Plant response rating, Nutsedge, Yellow [7, 23] | Plant response rating, Corn [10, 22]
